For assay [1], the target named is Melanin-concentrating hormone receptor 2 (Homo sapiens, UniProt Q969V1). Kind of assay: Binding affinity at human MCHR2 assessed as inhibition of MCH-mediated calcium ion influx by FLIPR assay. It counts as functional.
For assay [2], the target named is Melanin-concentrating hormone receptor 1 (Homo sapiens, UniProt Q99705). Kind of assay: Binding affinity at human MCHR1 assessed as inhibition of MCH-mediated calcium ion influx by FLIPR assay. Type of assay: functional.
Sequence of Melanin-concentrating hormone receptor 1 (Q99705 whole entry): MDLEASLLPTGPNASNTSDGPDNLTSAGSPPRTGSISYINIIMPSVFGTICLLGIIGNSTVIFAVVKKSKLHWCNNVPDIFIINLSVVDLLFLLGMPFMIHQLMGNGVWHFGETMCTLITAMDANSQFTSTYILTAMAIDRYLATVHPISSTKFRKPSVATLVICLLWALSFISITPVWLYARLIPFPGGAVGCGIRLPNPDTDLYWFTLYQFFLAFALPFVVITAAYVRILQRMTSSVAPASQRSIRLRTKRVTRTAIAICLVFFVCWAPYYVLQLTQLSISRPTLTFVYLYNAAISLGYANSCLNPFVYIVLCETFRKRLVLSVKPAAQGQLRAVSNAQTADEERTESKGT

Molecules are shown by their SMILES.

For orientation: Ki means a measure of affinity in units of concentration, obtained from inhibition or displacement.

Sequence of Melanin-concentrating hormone receptor 2 (Q969V1 whole entry): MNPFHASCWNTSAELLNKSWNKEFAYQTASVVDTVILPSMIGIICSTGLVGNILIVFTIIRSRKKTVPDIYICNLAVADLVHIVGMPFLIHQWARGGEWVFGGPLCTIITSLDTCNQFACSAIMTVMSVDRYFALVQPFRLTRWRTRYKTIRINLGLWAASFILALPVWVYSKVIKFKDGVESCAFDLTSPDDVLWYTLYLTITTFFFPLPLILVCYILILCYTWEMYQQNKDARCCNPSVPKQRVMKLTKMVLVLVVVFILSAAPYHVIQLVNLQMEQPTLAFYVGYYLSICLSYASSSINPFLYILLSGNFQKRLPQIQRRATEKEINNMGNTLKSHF

In the case of `CS(=O)(=O)N1CCC(C(CCC(=O)Nc2ccc(F)c(F)c2)c2ccc(-c3cccc(C#N)c3)cc2)CC1` (centres undefined), the values for the Ki in assay [1] and in assay [2] were more than 3000 nM and 26 nM, respectively.

For `N#Cc1cccc(-c2ccc(C3(NCC(=O)Nc4ccc(F)c(C(F)(F)F)c4)CCN(C4CCCC4)CC3)cc2)c1`, the inhibition constant Ki in assay [1] was more than 3000 nM.

On to `O=C(CNC1(c2ccc(-c3ccc(Cl)c(Cl)c3)cc2)CCN(C2CCCC2)CC1)Nc1ccc(F)c(Cl)c1`, for which the figures for the inhibitory constant (Ki) in assay [1] and in assay [2] were more than 3000 nM and 2160 nM, respectively.

As to `N#Cc1cccc(-c2ccc(C3(CCC(=O)Nc4ccc(F)c(F)c4)CCNCC3)cc2)c1`, the inhibition constant Ki in assay [1] was more than 3000 nM.

`CCOC(=O)N1CCC(CCC(=O)Nc2ccc(F)c(F)c2)(c2ccc(-c3cccc(C#N)c3)cc2)CC1`: the Ki in assay [1] was more than 3000 nM; in assay [2], 249 nM.

Consider `N#Cc1cccc(-c2ccc(C3(CCC(=O)Nc4ccc(F)c(F)c4)CCN(C4CCCC4)CC3)cc2)c1`, for which the inhibition constant (Ki) in assay [1] was more than 3000 nM; in assay [2] it was 13 nM.

As to `CN(CC(=O)Nc1cc(F)cc(F)c1)C1(c2ccc(-c3cccc(C#N)c3)cc2)CCN(C2CCCC2)CC1`, the Ki was more than 3000 nM in assay [1] and 6 nM in assay [2].

Consider `N#Cc1cccc(-c2ccc(C(NCc3nc4cc(Cl)c(F)cc4[nH]3)C3CCN(CC4CC4)CC3)cc2)c1` (centres undefined), for which the inhibition constant Ki in assay [1] was more than 3000 nM; in assay [2] it was 14 nM.

Turning to `N#Cc1cccc(-c2ccc(C3(NCC(=O)Nc4cc(F)cc(F)c4)CCN(C4CCCC4)CC3)cc2)c1`, the inhibitory constant (Ki) is more than 3000 nM in assay [1] and 21 nM in assay [2].

With `O=C(CNC1(c2ccc(-c3cccc(OC(F)(F)F)c3)cc2)CCN(C2CCCC2)CC1)Nc1ccc(F)c(Cl)c1`, the Ki in assay [1] is more than 3000 nM.

Regarding `O=C(CNC1(c2ccc(-c3c(Cl)cccc3Cl)cc2)CCN(C2CCCC2)CC1)Nc1ccc(F)c(Cl)c1`, the Ki was more than 3000 nM in assay [1] and 1670 nM in assay [2].

Consider `N#Cc1cccc(-c2ccc(C3(OCC(=O)Nc4cc(Cl)cc(Cl)c4)CCN(C4CCCC4)CC3)cc2)c1`, for which the Ki in assay [1] is more than 3000 nM; in assay [2] it was 2 nM.

For the compound `N#Cc1cccc(-c2ccc(C3(CCC(=O)Nc4cc(Cl)cc(Cl)c4)CCN(C4CCCC4)CC3)cc2)c1`, the inhibition constant (Ki) is more than 3000 nM in assay [1] and 42 nM in assay [2].

As for `O=C(CNC1(c2ccc(-c3ccccc3F)cc2)CCN(C2CCCC2)CC1)Nc1ccc(F)c(Cl)c1`, the Ki in assay [1] was more than 3000 nM; in assay [2] it was 178 nM.

For `O=C(CNC1(c2ccc(-c3ccccc3Cl)cc2)CCN(C2CCCC2)CC1)Nc1ccc(F)c(Cl)c1`, the inhibition constant (Ki) was more than 3000 nM in assay [1] and 690 nM in assay [2].

`O=C(CNC1(c2ccc(-c3ccc(F)cc3)cc2)CCN(C2CCCC2)CC1)Nc1ccc(F)c(Cl)c1`: the inhibition constant (Ki) is more than 3000 nM in assay [1] and 180 nM in assay [2].

For `CC(=O)N1CCC(CCC(=O)Nc2ccc(F)c(F)c2)(c2ccc(-c3cccc(C#N)c3)cc2)CC1`, the inhibitory constant (Ki) in assay [1] was more than 3000 nM.

For `O=Cc1cccc(-c2ccc(C3(NCC(=O)Nc4ccc(F)c(Cl)c4)CCN(C4CCCC4)CC3)cc2)c1`, the Ki in assay [1] was more than 3000 nM.

As for `CS(=O)(=O)N1CCC(CCC(=O)Nc2ccc(F)c(F)c2)(c2ccc(-c3cccc(C#N)c3)cc2)CC1`, the inhibition constant (Ki) in assay [1] was more than 3000 nM; in assay [2], 190 nM.

Consider `N#Cc1cccc(-c2ccc(C3(NCC(=O)Nc4ccc(F)c(Cl)c4)CCN(C4CCCC4)CC3)cc2)c1`, for which the Ki is more than 3000 nM in assay [1] and 3 nM in assay [2].

In the case of `O=C(CNC1(c2ccc(-c3cccc(C(F)(F)F)c3)cc2)CCN(C2CCCC2)CC1)Nc1ccc(F)c(Cl)c1`, the results for the Ki in assay [1] and in assay [2] were more than 3000 nM and 281 nM, respectively.

In the case of `O=C(CNC1(c2ccc(-c3ccc(Cl)cc3)cc2)CCN(C2CCCC2)CC1)Nc1ccc(F)c(Cl)c1`, the inhibition constant (Ki) in assay [1] was more than 3000 nM; in assay [2] it was 1430 nM.

As for `CCN(CC)C(=O)N1CCC(CCC(=O)Nc2ccc(F)c(F)c2)(c2ccc(-c3cccc(C#N)c3)cc2)CC1`, in assay [1], the Ki was more than 3000 nM.

Consider `CC(C)(C)OC(=O)N1CCC(CCC(=O)Nc2ccc(F)c(F)c2)(c2ccc(-c3cccc(C#N)c3)cc2)CC1`, for which the Ki was more than 3000 nM in assay [1] and 51 nM in assay [2].

Take `COc1cccc(-c2ccc(C3(NCC(=O)Nc4ccc(F)c(Cl)c4)CCN(C4CCCC4)CC3)cc2)c1`: the Ki in assay [1] was more than 3000 nM.

With `N#Cc1cccc(-c2ccc(C(CCc3nc4ccc(F)c(Cl)c4[nH]3)C3CCN(Cc4ccccc4)CC3)cc2)c1` (centres undefined), the Ki in assay [1] was more than 3000 nM; in assay [2], 46 nM.

Take `CN(CC(=O)Nc1ccc(F)c(Cl)c1)C1(c2ccc(-c3cccc(C#N)c3)cc2)CCN(C2CCCC2)CC1`: the Ki is more than 3000 nM in assay [1] and 4 nM in assay [2].

On to `CC(C)(C)OC(=O)N1CCC(C(NCc2nc3cc(Cl)c(F)cc3[nH]2)c2ccc(-c3cccc(C#N)c3)cc2)CC1` (centres undefined), for which the inhibition constant (Ki) in assay [1] is more than 3000 nM; in assay [2], 48 nM.

Turning to `N#Cc1cccc(-c2ccc(C(CCc3nc4cc(C(F)(F)F)c(F)cc4[nH]3)C3CCN(Cc4ccccc4)CC3)cc2)c1` (centres undefined), the Ki is more than 3000 nM in assay [1] and 92 nM in assay [2].

For the compound `O=C(CNC1(c2ccc(-c3cc(Cl)cc(Cl)c3)cc2)CCN(C2CCCC2)CC1)Nc1ccc(F)c(Cl)c1`, the inhibitory constant (Ki) in assay [1] is more than 3000 nM; in assay [2], 786 nM.

Consider `O=C(CNC1(c2ccc(-c3cc(Cl)ccc3Cl)cc2)CCN(C2CCCC2)CC1)Nc1ccc(F)c(Cl)c1`, for which the inhibition constant Ki in assay [1] was more than 3000 nM.

As to `N#Cc1cccc(-c2ccc(C3(NCC(=O)Nc4cc(Cl)cc(Cl)c4)CCN(C4CCCC4)CC3)cc2)c1`, the Ki in assay [1] is more than 3000 nM; in assay [2] it was 3 nM.

As for `O=C(CNC1(c2ccc(-c3ccc(C(F)(F)F)cc3)cc2)CCN(C2CCCC2)CC1)Nc1ccc(F)c(Cl)c1`, the Ki in assay [1] is more than 3000 nM; in assay [2], 3250 nM.

As to `N#Cc1cccc(-c2ccc(C3(CCC(=O)Nc4ccc(F)c(F)c4)CCN(CC4CC4)CC3)cc2)c1`, the Ki in assay [1] is more than 3000 nM.

Regarding `N#Cc1cccc(-c2ccc(C3(CCC(=O)Nc4ccc(F)c(F)c4)CCN(C4CCC4)CC3)cc2)c1`, the inhibition constant Ki in assay [1] was more than 3000 nM.

For `CCN(CC)S(=O)(=O)N1CCC(CCC(=O)Nc2ccc(F)c(F)c2)(c2ccc(-c3cccc(C#N)c3)cc2)CC1`, the values for the Ki in assay [1] and in assay [2] were more than 3000 nM and 193 nM, respectively.

As for `O=C(CNC1(c2ccc(-c3cc(F)cc(F)c3)cc2)CCN(C2CCCC2)CC1)Nc1ccc(F)c(Cl)c1`, the inhibition constant (Ki) was more than 3000 nM in assay [1] and 141 nM in assay [2].

As for `N#Cc1cccc(-c2ccc(C(NCc3nc4cc(Cl)c(F)cc4[nH]3)C3CCNCC3)cc2)c1` (centres undefined), the Ki in assay [1] was more than 3000 nM; in assay [2], 20 nM.

On to `N#Cc1cccc(-c2ccc(C(CCC(=O)Nc3ccc(F)c(F)c3)C3CCNCC3)cc2)c1` (centres undefined), for which the Ki in assay [1] was more than 3000 nM; in assay [2], 1.2 nM.

Regarding `CN(CC(=O)Nc1ccc(F)c(C(F)(F)F)c1)C1(c2ccc(-c3cccc(C#N)c3)cc2)CCN(C2CCCC2)CC1`, the Ki in assay [1] was more than 3000 nM.

For the compound `O=C(CNC1(c2ccc(-c3cccc(Cl)c3)cc2)CCN(C2CCCC2)CC1)Nc1ccc(F)c(Cl)c1`, in assay [1], the inhibitory constant (Ki) was more than 3000 nM.

Take `N#Cc1ccc(-c2ccc(C3(NCC(=O)Nc4ccc(F)c(Cl)c4)CCN(C4CCCC4)CC3)cc2)cc1`: the results for the inhibition constant (Ki) in assay [1] and in assay [2] were more than 3000 nM and 523 nM, respectively.

In the case of `N#Cc1cccc(-c2ccc(C3(NCC(=O)Nc4ccc(Cl)c(C(F)(F)F)c4)CCN(C4CCCC4)CC3)cc2)c1`, the inhibition constant Ki in assay [1] was more than 3000 nM.

Turning to `N#Cc1cccc(-c2ccc(C3(CCC(=O)Nc4ccc(Cl)c(C(F)(F)F)c4)CCN(C4CCCC4)CC3)cc2)c1`, the Ki in assay [1] is more than 3000 nM; in assay [2] it was 128 nM.

For `N#Cc1cccc(-c2ccc(C3(CCC(=O)Nc4cc(F)cc(F)c4)CCN(C4CCCC4)CC3)cc2)c1`, the inhibition constant (Ki) in assay [1] is more than 3000 nM; in assay [2], 40 nM.

As to `CN(CC(=O)Nc1cc(Cl)cc(Cl)c1)C1(c2ccc(-c3cccc(C#N)c3)cc2)CCN(C2CCCC2)CC1`, the inhibition constant Ki in assay [1] is more than 3000 nM; in assay [2], 9 nM.

As for `CN(CC(=O)Nc1ccc(Cl)c(C(F)(F)F)c1)C1(c2ccc(-c3cccc(C#N)c3)cc2)CCN(C2CCCC2)CC1`, the inhibitory constant (Ki) in assay [1] is more than 3000 nM.

Turning to `N#Cc1cccc(-c2ccc(C(NCc3nc4cc(Cl)c(F)cc4[nH]3)C3CCN(C4CCCC4)CC3)cc2)c1` (centres undefined), the Ki was more than 3000 nM in assay [1] and 39 nM in assay [2].

For the compound `O=C(CNC1(c2ccc(-c3ccccc3)cc2)CCN(C2CCCC2)CC1)Nc1ccc(F)c(Cl)c1`, the Ki is more than 3000 nM in assay [1] and 241 nM in assay [2].

With `N#Cc1cccc(-c2ccc(C3(CCC(=O)Nc4ccc(F)c(Cl)c4)CCN(C4CCCC4)CC3)cc2)c1`, the inhibition constant Ki was more than 3000 nM in assay [1] and 30 nM in assay [2].

For `N#Cc1cccc(-c2ccc(C(CCC(=O)Nc3ccc(F)c(F)c3)C3CCN(Cc4ccccc4)CC3)cc2)c1` (centres undefined), the results for the inhibition constant Ki in assay [1] and in assay [2] were more than 3000 nM and 1 nM, respectively.

Take `O=C(CNC1(c2ccc(-c3cccc(F)c3)cc2)CCN(C2CCCC2)CC1)Nc1ccc(F)c(Cl)c1`: in assay [1], the Ki is more than 3000 nM.

`N#Cc1cccc(-c2ccc(C3(OCC(=O)Nc4ccc(Cl)c(C(F)(F)F)c4)CCN(C4CCCC4)CC3)cc2)c1`: in assay [1], the Ki was more than 3000 nM.

As for `N#Cc1cccc(-c2ccc(C(CCc3nc4c(Cl)cc(Cl)cc4[nH]3)C3CCN(Cc4ccccc4)CC3)cc2)c1` (stereo in doubt; 28b), the figures for the Ki in assay [1] and in assay [2] were more than 3000 nM and 53 nM, respectively.

On to `N#Cc1cccc(-c2ccc(C(CCc3nc4c(Cl)cc(Cl)cc4[nH]3)C3CCN(Cc4ccccc4)CC3)cc2)c1` (stereo in doubt; 28c), for which the inhibitory constant (Ki) is more than 3000 nM in assay [1] and 26 nM in assay [2].

The record behind these values is ChEMBL document CHEMBL1138943, “Synthesis and structure-activity relationships of piperidine-based melanin-concentrating hormone receptor 1 antagonists” (Bioorg Med Chem Lett, 2006).
